In ChEMBL document CHEMBL1201862, “PubChem BioAssay data set” (2004):
Calls of active or inactive are those of the source.

What was measured:
Type in all cases: functional
[1] = biological target: Casein kinase I isoform alpha (Homo sapiens, UniProt P48729)
[2] = biological target: Testis-specific serine/threonine-protein kinase 2 (Homo sapiens, UniProt Q96PF2);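 further: part of the Navigating the Kinome panel, target entry STK22B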
[3] = biological target: Homeodomain-interacting protein kinase 4 (Homo sapiens, UniProt Q8NE63)
[4] = biological target: Mitogen-activated protein kinase kinase kinase 20 (Homo sapiens, UniProt Q9NYL2)

Measured: Ki

Chain of Homeodomain-interacting protein kinase 4 (Q8NE63 whole entry): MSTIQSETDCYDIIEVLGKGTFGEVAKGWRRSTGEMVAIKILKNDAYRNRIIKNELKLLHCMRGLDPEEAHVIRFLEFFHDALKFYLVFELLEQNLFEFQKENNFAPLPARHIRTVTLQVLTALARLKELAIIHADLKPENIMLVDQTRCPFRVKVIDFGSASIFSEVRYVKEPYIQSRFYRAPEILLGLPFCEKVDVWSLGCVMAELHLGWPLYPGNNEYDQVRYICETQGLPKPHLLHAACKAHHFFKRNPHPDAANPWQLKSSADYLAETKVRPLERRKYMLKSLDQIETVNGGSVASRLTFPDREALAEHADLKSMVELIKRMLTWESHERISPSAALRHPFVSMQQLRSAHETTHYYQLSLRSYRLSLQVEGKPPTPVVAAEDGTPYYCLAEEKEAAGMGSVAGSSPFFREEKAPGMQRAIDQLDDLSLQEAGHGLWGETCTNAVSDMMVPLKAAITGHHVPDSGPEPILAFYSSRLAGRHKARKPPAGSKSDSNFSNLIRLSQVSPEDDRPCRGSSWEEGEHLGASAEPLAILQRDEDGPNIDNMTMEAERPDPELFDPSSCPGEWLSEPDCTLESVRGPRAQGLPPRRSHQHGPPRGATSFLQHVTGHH
Chain of Casein kinase I isoform alpha (P48729 whole entry, canonical isoform): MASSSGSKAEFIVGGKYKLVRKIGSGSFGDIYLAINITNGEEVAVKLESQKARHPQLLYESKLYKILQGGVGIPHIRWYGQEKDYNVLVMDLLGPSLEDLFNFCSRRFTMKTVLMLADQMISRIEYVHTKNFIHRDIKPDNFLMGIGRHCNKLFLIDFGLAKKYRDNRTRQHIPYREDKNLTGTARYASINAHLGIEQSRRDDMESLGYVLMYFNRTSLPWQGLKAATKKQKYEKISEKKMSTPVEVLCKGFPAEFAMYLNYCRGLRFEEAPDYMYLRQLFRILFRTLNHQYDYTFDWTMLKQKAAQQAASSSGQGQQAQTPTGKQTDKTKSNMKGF
Chain of Mitogen-activated protein kinase kinase kinase 20 (Q9NYL2 whole entry): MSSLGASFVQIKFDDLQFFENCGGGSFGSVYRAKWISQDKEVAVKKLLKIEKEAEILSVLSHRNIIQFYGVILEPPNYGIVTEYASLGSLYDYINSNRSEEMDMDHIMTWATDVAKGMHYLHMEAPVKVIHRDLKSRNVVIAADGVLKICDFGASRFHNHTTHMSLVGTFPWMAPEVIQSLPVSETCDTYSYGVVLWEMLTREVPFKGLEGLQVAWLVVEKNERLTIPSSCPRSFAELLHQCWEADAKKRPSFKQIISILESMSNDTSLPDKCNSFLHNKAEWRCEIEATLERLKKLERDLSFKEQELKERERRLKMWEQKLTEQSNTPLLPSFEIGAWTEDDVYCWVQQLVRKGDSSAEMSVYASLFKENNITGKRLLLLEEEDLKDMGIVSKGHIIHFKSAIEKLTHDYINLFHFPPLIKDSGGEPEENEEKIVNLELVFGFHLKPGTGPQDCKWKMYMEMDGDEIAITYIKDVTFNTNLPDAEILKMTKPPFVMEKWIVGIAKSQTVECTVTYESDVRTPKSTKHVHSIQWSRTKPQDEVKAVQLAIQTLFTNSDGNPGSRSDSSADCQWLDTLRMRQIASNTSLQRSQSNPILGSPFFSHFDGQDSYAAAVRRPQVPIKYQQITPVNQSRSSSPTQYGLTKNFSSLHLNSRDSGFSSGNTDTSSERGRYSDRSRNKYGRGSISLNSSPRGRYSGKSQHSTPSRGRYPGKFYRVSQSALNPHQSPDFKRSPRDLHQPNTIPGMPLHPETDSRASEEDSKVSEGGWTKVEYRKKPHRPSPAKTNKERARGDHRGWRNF
Chain of Testis-specific serine/threonine-protein kinase 2 (Q96PF2 whole entry): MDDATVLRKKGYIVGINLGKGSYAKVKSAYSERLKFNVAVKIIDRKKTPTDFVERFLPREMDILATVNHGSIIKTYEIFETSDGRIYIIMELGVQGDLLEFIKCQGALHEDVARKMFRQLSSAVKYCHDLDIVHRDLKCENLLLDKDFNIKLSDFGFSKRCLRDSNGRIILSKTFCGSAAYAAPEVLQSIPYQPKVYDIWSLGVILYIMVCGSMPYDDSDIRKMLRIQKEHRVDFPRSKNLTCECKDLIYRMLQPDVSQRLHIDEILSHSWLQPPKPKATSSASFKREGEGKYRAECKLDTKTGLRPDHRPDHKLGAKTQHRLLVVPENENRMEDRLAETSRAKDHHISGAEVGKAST

Cc1n[nH]c2ccc(-c3cncc(OCC(N)Cc4cccc(Cl)c4)c3)cc12 (centres undefined)
active: [1] 0.126 µM | [2] 1.58 µM | [3] 1.58 µM | [4] 7.94 µM
